Assay results published in patent US12605384B2, “Uses” (INTRA-CELLULAR THERAPIES, INC., priority 2018, dated 2026).
Structures can show the parent of a compound that is named as a salt.

Tests used:
[1] = tested on: patients with stable chronic systolic HF; experiment: Phase Ib/IIa single ascending dose study in human heart failure; type: in vivo
Protocol: (§1) A further group was administered placebo.
(§2) Hemodynamic monitoring began 30-60 minutes prior to the pre-dose echocardiogram through to 5-6 hours post-dose.
Supine and orthostatic blood pressure and heart rate were recorded pre-dose, as well as 60 and 40 minutes post-dose. Continuous electrocardiographic monitoring starting up to 30-60 minutes prior to the pre-dose echocardiogram through to 5-6 hours post-dose including measurement of ectopic arrhythmias pre- and post-dose.

myocyte cAMP = experiment: Whole cell cAMP in rabbit myocytes; type: cell-based; settings: for cAMP: added to Fsk; for whole cell cAMP: alone or combined with Iso
Source text: This is consistent with prior studies showing locally generated cAMP from β-AR and its modulation by PDE3 occur in local subcellular domains that are not easily detected in whole cell lysates32.

[2] = Plasma Compound 1 levels in dogs (LC/MS-MS); type: in vivo, dog; settings: normal dogs, 0.1 mg/kg i.v.
Protocol: (§3) Dogs are studied in the conscious state before and after inducing dilated cardiomyopathy by tachypacing for two weeks at 200 bpm.
(§4) The study employs two doses, 0.01 and 0.1 mg/kg, the latter administered 30 minutes after the first.
Intravenous blood is placed in K2EDTA tubes, centrifuged at 2,000 g for 15 min, plasma decanted, and stored frozen. Compound 1 levels are assessed by a rapid, sensitive liquid chromatography-tandem mass spectrometric (LC/MS-MS) method.
The mobile phase consists of a gradient of 60-100% methanol over 4.5 minutes in 5 mM ammonium bicarbonate with 0.2% NH3H2O, pumped at a flow rate of 0.8 mL/min. Analysis time is 4.5 min and both the analyte and internal standard eluted around 2.0 min. Multiple reactions monitoring (MRM) mode is used to detect Compound 1. MS is operated in the positive ion detection mode. […] Calibration curves are linear from 0.02-500 ng/mL in dog plasma sample matrices. The lower limit of quantification (LLOQ) for plasma was 0.02 ng/mL.

[3] = tested on: normal adult rabbit myocytes; experiment: Contraction and calcium transients in isolated rabbit cardiomyocytes; type: cell-based; design: effect on contraction and calcium transients: dose or concentration left out as unconfirmed
Protocol: To test whether PDE1 inhibition directly impacts cardiomyocyte contraction and calcium transients, studies are carried out on normal adult rabbit myocytes. […] As PDE1 requires sufficient cAMP and Ca^2+ to be impactful, a dose response was performed to the adenylate cyclase activator, forskolin (FSK) to determine the lowest dose producing a modest but significant inotropic effect (1 μM).
Rabbit myocytes were isolated to determine the effect of PDE1 inhibition on cardiomyocyte contraction and whole cell Ca2+ transients, and to compare the results to those with a PDE3 inhibitor, cilostamide (Cil, 1 μM).

[4] = Plasma pharmacokinetics in heart failure patients; type: in vivo, human; settings: 10, 30, 90 mg
Protocol: as §1, §2

[5] = tested on: New Zealand White rabbits; experiment: Pressure-volume hemodynamics in anesthetized rabbits; type: in vivo, rabbit; settings: for hemodynamic effects: atrially paced
Source text: Cyclic AMP is generated largely by transmembrane adenylyl cyclases activated via stimulatory G protein (Gs), with β-adrenergic, adenosine (primarily […]), glucagon, prostanoids, histamine, and serotonin all coupling to Gs in cardiomyocytes. The present studies focus on beta-adrenergic and adenosine receptors, and for the latter, concentrated on the A2B receptor, which has been reported to directly stimulate cAMP-dependent contractility. […] Relaxation changes are also modest with LV preload (end-diastolic and volume) unaltered; however, the combined vasodilator-inotropic response doubled ventricular/arterial coupling ratio, Ees/Ea.
New Zealand White rabbits (male, 2-3 kg) are sedated with 35 mg/kg ketamine and 5 mg/kg xylazine, intubated and ventilated (Model 683, Harvard Apparatus, Holliston, MA), with anesthesia maintained with isoflurane inhalation (1-2%). A pressure-volume catheter (SPR-894, Millar, Inc., Houston, TX) is inserted via the common carotid artery and advanced to the LV apex, and a 2-Fr pacing catheter is positioned in the right atrium via the right jugular vein to provide atrial pacing. […] The parallel conductance is determined by the hypertonic saline injection method. Rabbits are infused with 6% hetastarch in saline during the procedure to stabilize arterial pressure.

[6] = tested on: normal and failing canine hearts; experiment: Conscious pressure-volume hemodynamic analysis in dogs; type: in vivo, dog
Protocol: as §3, §4
Load insensitive indexes of contractility (dP/dtmax/IP and PRSW) increased.

plasma cAMP and cGMP = experiment: Plasma cAMP and cGMP by ELISA in dogs; type: in vivo, dog; settings: for plasma cGMP: normal and HF models, all conditions
Protocol: Blood plasma is obtained from these animals, and cAMP and cGMP are assayed by ELISA.

[7] = continuous ECG monitoring to 5-6 hours post-dose
[8] = Compound 1 added after FSK 1 μM

Q: What does the source list for `CN1C(=O)c2c(nn(Cc3ccc(-c4cccc(F)n4)cc3)c2Nc2ccccc2)N2C1=N[C@@H]1CCC[C@@H]12` [Compound 1, (6aR,9aS)-2-(4-(6-fluoropyridin-2-yl)benzyl)-5-methyl-3-(phenyl-amino)-5,6a,7,8,9,9a-hexahydrocyclopenta-[4,5]imidazo[1,2-a]pyrazolo[4,3-e]pyrimidin-4-(2H)-one monophosphate]?
A: systemic vascular resistance ([1]; 30 mg): greatest decrease; effective arterial elastance (Ea) ([1]; 30 mg and 90 mg): decreased; systemic vascular resistance ([1]; all cohorts (10, 30, 90 mg single oral dose)): significantly decrease systemic vascular resistance; mean arterial blood pressure ([1]; all dose amounts, versus placebo): decrease mean arterial blood pressure versus placebo; atrial fibrillation or atrial flutter [1, 7]: none of the patients developed atrial fibrillation or atrial flutter; sustained supraventricular or ventricular tachycardia [1, 7]: no patient developed sustained supraventricular or ventricular tachycardia; ventricular proarrhythmia [1, 7]: no evidence of ventricular proarrhythmia; safety and tolerability ([1]; patients with systolic heart failure (HFrEF)): safe and well tolerated; blood pressures and heart rates ([1]; throughout the testing period): remained stable; cAMP change as share of the maximal change with IBMX added to Fsk (myocyte cAMP; Compound 1 added to Fsk): about half; cAMP (myocyte cAMP): substantially increased by adding Compound 1; time of peak plasma concentration [2]: within minutes; percent sarcomere shortening, peak-Ca2+ transients and decay kinetics ([3]; Compound 1 1 μM alone): not observed; rise in sarcomere shortening versus time-control ([3]; Compound 1+FSK vs FSK for identical duration): exceeds that with FSK alone; peak calcium transient [3, 8]: remains unaltered; shortening and relaxation/calcium decay rates [3, 8]: significantly increases shortening and relaxation/calcium decay rates; effect on contraction and calcium transients ([3]; Compound 1 alone): no effect; Ca2+ transient decay ([3]; added to Fsk 1 μM): enhanced the Ca2+ decay rate similarly to Cil; peak Ca2+ transient ([3]; added to Fsk 1 μM): no corresponding increase in peak Ca2+ transient; sarcomere shortening ([3]; added to Fsk 1 μM): rose as with Cil; peak-Ca2+ ([3]; added to Iso): no longer significantly different from pre-Iso baseline; sarcomere shortening ([3]; added to Iso): did not change further; area under curve [4]: increasing with dose escalation; LV preload ([5]; 0.1 mg/kg i.v. bolus, alone): unaltered; cardiac output ([5]; 0.1 mg/kg i.v. bolus, alone): increases cardiac output; heart rate ([5]; 0.1 mg/kg i.v. bolus, alone): modestly elevated heart rate; relaxation changes ([5]; 0.1 mg/kg i.v. bolus, alone): modest; systemic resistance ([5]; 0.1 mg/kg i.v. bolus, alone): lowered systemic resistance; systolic pressure ([5]; 0.1 mg/kg i.v. bolus, alone): no change in systolic pressure; contractile and vasodilation effects ([5]; after esmolol): remain intact; heart rate ([5]; after esmolol): no longer increases HR; hemodynamic responses ([5]; atrially paced at ~20% above sinus node rate): nearly identical responses; hemodynamic effects ([5]; with MRS-1754): fully blocked by MRS-1754; hemodynamic effects ([5]; with esmolol): unaltered by esmolol; cardiovascular responses to Compound 1 (heart rate, contractility, vasodilation) ([5]; with A2BR blocker MRS-1754): eliminated all of the cardiovascular responses; hemodynamic responses ([6]; 0.1 mg/kg i.v.): positive chronotropic, inotropic, lusitropic, and vasodilator responses; inotropy, lusitropy and vasodilation ([6]; i.v., heart failure dogs): remained significantly improved; plasma cAMP (plasma cAMP and cGMP; HF dogs, combination of dobutamine and Compound 1): significantly higher; plasma cGMP (plasma cAMP and cGMP): remains unchanged

Q: For `CC(C)Cn1c(=O)n(C)c(=O)c2[nH]cnc21` [IBMX, reference compound], which peak calcium transients ([3]; IBMX 100 μM) is on record?
A: did not alter peak calcium transients

Q: What about the “shortening and contraction/calcium decay rates” value ([3]; IBMX 100 μM) of the same molecule?
A: increased shortening and contraction/calcium decay rates

Q: For `CCCn1c(=O)c2[nH]c(-c3ccc(OCC(=O)Nc4ccc(C#N)cc4)cc3)nc2n(CCC)c1=O` [MRS-1754, reference compound], which “impact of inhibitor pre-treatment alone on cardiovascular hemodynamics” value [5] is on record?
A: Neither inhibitor pre-treatment alone has a significant impact

Q: With `CN(C(=O)CCCOc1ccc2[nH]c(=O)ccc2c1)C1CCCCC1` [cilostamide, reference compound] as the molecule, how does the cAMP (myocyte cAMP) read?
A: unaltered by addition of Cil

Q: And the “whole cell cAMP” value (myocyte cAMP)?
A: did not measurably increase whole cell cAMP

Q: And the “percent sarcomere shortening, peak-Ca2+ transients and decay kinetics” value ([3]; Cil 1 μM alone)?
A: rose and their decay kinetics accelerated

Q: And the “Ca2+ transient decay” value ([3]; added to Fsk 1 μM)?
A: faster decay of the Ca2+ transient

Q: What about the “peak Ca2+ transient” value ([3]; added to Fsk 1 μM) of the same molecule?
A: increase

Q: And the sarcomere shortening ([3]; added to Fsk 1 μM)?
A: increase in sarcomere shortening

Q: And the “peak-Ca2+” value ([3]; added to Iso)?
A: remained elevated over baseline

Q: What about the sarcomere shortening ([3]; added to Iso) of the same molecule?
A: further increased sarcomere shortening

Q: With `CC(CCc1ccc(O)cc1)NCCc1ccc(O)c(O)c1` (stereo not drawn) [dobutamine, reference compound] as the molecule, how does the “PV loop area (stroke work) and contractility” value ([6]; dobutamine 10 μg/kg/min alone) read?
A: increased PV loop area

Q: And the “plasma cGMP” value (plasma cAMP and cGMP)?
A: remains unchanged

Q: For `COC(=O)CCc1ccc(OCC(O)CNC(C)C)cc1` (stereo not drawn) [esmolol, esmolol HCl, reference compound], which “cardiac responses to 10 μg/kg/min dobutamine” value ([5]; esmolol dose as used) is on record?
A: effectively blocked cardiac responses

Q: And the “impact of inhibitor pre-treatment alone on cardiovascular hemodynamics” value [5]?
A: Neither inhibitor pre-treatment alone has a significant impact

Q: For `CC(C)NCC(O)c1ccc(O)c(O)c1` (stereo not drawn) [isoproterenol, reference compound], which “whole cell cAMP” value (myocyte cAMP) is on record?
A: did not measurably increase whole cell cAMP

Q: And the “sarcomere shortening and peak Ca2+” value ([3]; isoproterenol 50 nM)?
A: increases both sarcomere shortening and peak Ca^2+

Q: And the “sarcomere shortening, peak-Ca2+ and relaxation times” value ([3]; non-saturating dose of isoproterenol)?
A: increased sarcomere shortening and peak-Ca^2+, and quickened relaxation times
